Assay results: ChEMBL document CHEMBL5465560, “Selectivity Literature for EUbOPEN Chemogenomic Library” (2024)

What was measured:
[1] = target: MAP kinase-interacting serine/threonine-protein kinase 1 (Homo sapiens) (UniProt Q9BUB5); settings: at 10 µM
[2] = target: Serine/threonine-protein kinase Nek7 (Homo sapiens) (UniProt Q8TDX7); settings: at 10 µM
[3] = target: Proto-oncogene tyrosine-protein kinase receptor Ret (Homo sapiens, UniProt P07949); test: Selectivity interaction (Millipore kinase profiler) EUB0000124b RET; settings: at 10 µM
Sequence of Proto-oncogene tyrosine-protein kinase receptor Ret (P07949 whole entry): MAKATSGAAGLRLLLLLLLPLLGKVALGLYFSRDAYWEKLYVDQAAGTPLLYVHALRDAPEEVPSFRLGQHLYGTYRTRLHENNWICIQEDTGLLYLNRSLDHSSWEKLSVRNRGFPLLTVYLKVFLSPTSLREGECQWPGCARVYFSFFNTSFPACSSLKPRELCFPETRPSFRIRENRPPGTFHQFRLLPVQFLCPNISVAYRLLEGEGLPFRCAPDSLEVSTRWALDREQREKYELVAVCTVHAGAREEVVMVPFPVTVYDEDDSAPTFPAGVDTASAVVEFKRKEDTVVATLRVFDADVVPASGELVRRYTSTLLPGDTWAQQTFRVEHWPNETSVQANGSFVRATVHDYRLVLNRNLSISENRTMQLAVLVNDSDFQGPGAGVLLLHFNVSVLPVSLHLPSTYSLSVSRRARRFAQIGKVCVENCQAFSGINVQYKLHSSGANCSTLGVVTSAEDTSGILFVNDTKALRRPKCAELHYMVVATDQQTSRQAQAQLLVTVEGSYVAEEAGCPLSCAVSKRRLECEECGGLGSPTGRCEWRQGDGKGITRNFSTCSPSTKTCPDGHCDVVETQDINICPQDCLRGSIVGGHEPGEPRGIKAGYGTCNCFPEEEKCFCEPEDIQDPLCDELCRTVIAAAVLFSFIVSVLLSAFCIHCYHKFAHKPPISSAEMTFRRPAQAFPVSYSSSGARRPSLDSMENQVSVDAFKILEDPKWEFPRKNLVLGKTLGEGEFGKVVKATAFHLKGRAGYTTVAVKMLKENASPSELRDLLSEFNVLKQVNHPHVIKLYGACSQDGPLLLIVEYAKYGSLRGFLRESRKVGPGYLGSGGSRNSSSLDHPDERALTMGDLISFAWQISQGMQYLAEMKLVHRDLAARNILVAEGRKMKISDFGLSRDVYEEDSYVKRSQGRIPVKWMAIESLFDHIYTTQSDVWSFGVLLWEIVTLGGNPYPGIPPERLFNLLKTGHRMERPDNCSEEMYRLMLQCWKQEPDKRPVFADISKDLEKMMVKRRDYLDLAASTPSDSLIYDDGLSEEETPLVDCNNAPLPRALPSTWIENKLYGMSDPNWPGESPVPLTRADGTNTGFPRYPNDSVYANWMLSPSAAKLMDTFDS

[4] = target: Serine/threonine-protein kinase PLK2 (Homo sapiens, UniProt Q9NYY3); test: Selectivity interaction (KinomeScan (DiscoverX)) EUB0000229b PLK2; settings: at 10 µM
Sequence of Serine/threonine-protein kinase PLK2 (Q9NYY3 whole entry, looked up): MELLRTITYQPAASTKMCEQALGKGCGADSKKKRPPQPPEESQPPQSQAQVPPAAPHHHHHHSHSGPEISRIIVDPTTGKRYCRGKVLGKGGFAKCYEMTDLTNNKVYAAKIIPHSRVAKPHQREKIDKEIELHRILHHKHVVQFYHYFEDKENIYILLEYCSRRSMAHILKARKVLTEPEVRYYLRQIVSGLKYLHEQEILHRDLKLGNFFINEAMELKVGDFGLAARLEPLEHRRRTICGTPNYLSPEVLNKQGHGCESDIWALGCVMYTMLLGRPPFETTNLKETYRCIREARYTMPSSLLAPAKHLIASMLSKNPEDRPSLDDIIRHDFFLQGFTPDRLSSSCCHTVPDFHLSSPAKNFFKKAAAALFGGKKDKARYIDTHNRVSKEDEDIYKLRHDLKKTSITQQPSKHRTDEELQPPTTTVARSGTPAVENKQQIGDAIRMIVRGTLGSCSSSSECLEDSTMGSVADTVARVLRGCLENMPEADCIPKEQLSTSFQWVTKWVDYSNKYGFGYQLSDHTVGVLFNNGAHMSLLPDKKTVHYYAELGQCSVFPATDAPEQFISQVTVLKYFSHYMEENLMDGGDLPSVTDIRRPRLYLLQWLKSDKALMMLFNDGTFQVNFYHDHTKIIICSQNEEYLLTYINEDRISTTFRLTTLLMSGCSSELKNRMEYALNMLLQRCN

[5] = target: Protein-tyrosine kinase 6 (Homo sapiens, UniProt Q13882); test: Selectivity interaction (KinomeScan (DiscoverX)) EUB0001079a PTK6; settings: at 1 µM
Sequence of Protein-tyrosine kinase 6 (Q13882 whole entry, looked up): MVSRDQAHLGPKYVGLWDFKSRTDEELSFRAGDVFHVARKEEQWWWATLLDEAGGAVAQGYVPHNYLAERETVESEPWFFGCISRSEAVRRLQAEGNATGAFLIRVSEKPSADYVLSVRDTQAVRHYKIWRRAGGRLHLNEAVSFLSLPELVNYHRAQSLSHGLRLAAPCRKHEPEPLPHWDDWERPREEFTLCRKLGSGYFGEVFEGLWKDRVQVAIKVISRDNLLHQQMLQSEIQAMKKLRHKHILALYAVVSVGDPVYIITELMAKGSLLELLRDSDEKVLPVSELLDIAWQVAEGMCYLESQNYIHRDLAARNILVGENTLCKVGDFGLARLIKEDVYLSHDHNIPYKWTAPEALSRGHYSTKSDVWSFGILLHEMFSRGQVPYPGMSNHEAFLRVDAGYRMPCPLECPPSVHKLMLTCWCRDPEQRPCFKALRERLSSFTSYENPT

[6] = target: STE20-like serine/threonine-protein kinase (Homo sapiens, UniProt Q9H2G2); test: Selectivity interaction (KinomeScan (DiscoverX)) EUB0000092b SLK; settings: at 10 µM
Sequence of STE20-like serine/threonine-protein kinase (Q9H2G2 whole entry, looked up): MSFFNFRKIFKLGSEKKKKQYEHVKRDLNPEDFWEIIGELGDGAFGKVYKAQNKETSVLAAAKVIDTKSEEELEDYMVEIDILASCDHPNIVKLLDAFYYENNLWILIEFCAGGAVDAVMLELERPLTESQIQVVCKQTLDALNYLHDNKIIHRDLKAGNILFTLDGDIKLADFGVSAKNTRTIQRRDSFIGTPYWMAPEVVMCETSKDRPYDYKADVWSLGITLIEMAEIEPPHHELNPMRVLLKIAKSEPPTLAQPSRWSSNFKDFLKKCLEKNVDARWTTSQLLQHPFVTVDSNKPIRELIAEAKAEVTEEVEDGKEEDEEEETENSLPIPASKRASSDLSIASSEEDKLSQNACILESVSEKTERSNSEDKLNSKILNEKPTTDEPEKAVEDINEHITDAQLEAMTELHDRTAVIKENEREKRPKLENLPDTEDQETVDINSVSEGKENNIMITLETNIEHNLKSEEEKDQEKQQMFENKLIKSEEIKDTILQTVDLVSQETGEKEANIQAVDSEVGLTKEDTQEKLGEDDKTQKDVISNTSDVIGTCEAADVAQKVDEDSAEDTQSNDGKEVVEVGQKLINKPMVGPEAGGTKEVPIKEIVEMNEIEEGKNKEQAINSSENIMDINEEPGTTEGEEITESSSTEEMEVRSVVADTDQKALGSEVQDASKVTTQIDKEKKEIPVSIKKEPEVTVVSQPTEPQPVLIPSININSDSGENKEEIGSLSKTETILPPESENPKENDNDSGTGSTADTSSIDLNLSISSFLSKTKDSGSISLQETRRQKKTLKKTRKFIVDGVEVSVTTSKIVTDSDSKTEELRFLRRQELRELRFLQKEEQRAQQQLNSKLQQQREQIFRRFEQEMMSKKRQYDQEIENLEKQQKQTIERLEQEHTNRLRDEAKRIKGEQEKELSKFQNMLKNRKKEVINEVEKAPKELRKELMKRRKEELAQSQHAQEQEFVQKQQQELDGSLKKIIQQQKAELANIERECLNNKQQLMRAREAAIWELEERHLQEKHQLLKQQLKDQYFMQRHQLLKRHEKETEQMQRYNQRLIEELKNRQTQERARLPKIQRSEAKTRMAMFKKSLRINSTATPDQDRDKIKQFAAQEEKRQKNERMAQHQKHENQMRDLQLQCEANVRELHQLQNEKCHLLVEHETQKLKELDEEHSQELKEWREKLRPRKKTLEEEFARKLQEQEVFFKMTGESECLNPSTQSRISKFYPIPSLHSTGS

[7] = target: Cyclin-dependent kinase 3 (Homo sapiens) (UniProt Q00526); test: Selectivity interaction (KinomeScan (DiscoverX)) EUB0000045b CDK3
Sequence of Cyclin-dependent kinase 3 (Homo sapiens) (Q00526 whole entry, looked up): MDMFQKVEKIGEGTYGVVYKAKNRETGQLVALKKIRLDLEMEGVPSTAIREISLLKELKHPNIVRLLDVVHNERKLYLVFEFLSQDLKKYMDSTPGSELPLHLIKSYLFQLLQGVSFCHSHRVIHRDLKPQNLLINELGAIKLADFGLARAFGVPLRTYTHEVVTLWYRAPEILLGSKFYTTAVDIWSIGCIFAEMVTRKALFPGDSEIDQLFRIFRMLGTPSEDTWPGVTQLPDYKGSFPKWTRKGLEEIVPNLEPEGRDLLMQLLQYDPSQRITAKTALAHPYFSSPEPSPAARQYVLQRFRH

[8] = target: Tyrosine-protein kinase CSK (Homo sapiens) (UniProt P41240); test: Selectivity interaction (KinomeScan (DiscoverX)) EUB0000618a CSK; settings: at 10 µM
Sequence of Tyrosine-protein kinase CSK (Homo sapiens) (P41240 2-450 limits assumed): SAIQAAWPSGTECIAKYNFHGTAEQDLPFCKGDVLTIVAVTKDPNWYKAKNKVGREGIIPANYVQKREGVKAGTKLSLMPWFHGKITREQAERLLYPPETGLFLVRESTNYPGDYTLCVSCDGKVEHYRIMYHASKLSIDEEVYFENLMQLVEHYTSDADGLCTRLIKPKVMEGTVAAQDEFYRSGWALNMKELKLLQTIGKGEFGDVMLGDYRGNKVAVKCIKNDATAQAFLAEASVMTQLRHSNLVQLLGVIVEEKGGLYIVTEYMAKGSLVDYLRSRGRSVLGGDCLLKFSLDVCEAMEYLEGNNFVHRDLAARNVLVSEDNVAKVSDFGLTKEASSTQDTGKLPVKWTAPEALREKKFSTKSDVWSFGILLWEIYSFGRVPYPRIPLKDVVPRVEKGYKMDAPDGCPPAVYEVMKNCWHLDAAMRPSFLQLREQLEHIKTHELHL

[9] = target: T1, Serine/threonine-protein kinase Nek2 (Homo sapiens) (UniProt P51955); test: Selectivity interaction (KinomeScan (DiscoverX)) EUB0000607a NEK2; settings: at 10 µM
T1 sequence (whole entry): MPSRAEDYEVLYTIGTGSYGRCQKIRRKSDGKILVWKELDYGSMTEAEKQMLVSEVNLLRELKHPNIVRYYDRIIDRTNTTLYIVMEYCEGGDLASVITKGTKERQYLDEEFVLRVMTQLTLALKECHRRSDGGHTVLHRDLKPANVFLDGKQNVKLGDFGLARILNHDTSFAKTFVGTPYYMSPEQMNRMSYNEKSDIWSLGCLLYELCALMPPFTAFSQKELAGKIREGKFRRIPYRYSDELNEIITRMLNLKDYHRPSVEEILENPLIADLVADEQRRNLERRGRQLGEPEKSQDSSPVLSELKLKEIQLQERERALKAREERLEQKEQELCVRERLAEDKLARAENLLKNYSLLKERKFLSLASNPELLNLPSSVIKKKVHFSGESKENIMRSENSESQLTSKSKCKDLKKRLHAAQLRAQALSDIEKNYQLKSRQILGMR

[10] = target: T2, Serine/threonine-protein kinase Nek11 (Homo sapiens) (UniProt Q8NG66); test: Selectivity interaction (KinomeScan (DiscoverX)) EUB0000666a NEK11; settings: at 10 µM
T2 sequence (whole entry): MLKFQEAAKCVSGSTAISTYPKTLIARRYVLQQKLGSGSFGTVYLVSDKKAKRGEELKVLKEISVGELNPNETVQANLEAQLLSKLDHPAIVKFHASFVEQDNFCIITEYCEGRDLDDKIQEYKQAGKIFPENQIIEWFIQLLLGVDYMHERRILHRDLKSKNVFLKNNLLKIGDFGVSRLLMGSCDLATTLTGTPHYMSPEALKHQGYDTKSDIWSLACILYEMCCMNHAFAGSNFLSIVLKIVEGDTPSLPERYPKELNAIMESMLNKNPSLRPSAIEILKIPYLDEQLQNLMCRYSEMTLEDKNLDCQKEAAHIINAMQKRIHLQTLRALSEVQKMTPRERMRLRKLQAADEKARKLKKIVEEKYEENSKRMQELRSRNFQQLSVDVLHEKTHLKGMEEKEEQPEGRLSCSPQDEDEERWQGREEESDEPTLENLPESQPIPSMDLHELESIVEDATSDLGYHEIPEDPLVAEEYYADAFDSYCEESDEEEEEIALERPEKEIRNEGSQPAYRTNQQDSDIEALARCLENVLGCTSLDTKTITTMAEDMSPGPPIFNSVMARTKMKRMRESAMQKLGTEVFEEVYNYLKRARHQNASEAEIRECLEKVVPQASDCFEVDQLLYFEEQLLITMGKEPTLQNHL

[11] = target: T3, Serine/threonine-protein kinase PLK4 (Homo sapiens) (UniProt O00444); test: Selectivity interaction (Kinase panel (DSF assay)) EUB0001558a PLK4
T3 sequence (whole entry): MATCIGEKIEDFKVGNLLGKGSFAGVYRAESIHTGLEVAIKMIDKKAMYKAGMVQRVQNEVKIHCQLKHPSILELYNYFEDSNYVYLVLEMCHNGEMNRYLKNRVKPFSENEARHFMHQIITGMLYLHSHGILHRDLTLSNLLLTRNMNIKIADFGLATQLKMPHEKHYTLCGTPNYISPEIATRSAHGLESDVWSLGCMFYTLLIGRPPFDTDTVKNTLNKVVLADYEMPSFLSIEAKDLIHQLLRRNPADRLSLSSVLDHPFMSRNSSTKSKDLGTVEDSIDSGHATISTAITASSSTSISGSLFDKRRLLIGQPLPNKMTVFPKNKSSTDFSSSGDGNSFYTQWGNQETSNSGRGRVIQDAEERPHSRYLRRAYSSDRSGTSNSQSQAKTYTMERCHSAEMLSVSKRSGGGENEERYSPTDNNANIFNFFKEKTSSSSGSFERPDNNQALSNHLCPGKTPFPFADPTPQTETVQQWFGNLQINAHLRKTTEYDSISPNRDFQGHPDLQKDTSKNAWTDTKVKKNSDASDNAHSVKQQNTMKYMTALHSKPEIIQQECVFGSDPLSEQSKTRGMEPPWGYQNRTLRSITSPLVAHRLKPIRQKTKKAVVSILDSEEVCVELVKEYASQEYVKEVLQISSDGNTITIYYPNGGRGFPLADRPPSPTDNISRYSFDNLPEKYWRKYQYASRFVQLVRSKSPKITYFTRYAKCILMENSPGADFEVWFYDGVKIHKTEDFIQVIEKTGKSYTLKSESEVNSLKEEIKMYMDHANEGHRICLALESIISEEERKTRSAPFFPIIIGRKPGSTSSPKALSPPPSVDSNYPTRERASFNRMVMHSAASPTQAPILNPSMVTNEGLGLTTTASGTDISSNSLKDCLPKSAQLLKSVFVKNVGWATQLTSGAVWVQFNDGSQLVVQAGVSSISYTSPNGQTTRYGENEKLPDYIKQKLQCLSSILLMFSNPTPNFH

Sequence of MAP kinase-interacting serine/threonine-protein kinase 1 (Homo sapiens) (Q9BUB5 whole entry, looked up): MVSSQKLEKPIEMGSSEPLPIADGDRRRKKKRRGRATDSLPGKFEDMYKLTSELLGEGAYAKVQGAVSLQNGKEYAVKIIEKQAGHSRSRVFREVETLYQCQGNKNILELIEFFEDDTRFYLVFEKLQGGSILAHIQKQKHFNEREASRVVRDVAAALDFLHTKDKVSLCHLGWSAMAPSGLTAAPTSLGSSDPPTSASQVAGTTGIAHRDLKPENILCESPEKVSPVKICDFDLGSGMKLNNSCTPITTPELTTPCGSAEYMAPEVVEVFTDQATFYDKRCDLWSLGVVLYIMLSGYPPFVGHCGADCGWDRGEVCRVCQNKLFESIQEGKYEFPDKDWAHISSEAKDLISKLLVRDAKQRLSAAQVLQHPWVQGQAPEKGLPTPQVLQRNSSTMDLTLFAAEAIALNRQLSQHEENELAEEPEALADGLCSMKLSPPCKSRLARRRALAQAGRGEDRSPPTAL
Sequence of Serine/threonine-protein kinase Nek7 (Homo sapiens) (Q8TDX7 whole entry, looked up): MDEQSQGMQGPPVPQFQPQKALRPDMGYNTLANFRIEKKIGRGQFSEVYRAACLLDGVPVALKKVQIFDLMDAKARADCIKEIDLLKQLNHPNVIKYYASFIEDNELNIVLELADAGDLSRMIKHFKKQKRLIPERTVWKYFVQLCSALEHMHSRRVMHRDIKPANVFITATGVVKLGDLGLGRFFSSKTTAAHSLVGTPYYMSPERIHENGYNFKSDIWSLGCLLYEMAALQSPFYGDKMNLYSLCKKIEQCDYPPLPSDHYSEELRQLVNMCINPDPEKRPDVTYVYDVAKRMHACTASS

In the case of `Cc1cc([C@@H](C)Nc2ccccc2C(=O)O)c2nc(N3CCOCC3)cc(=O)n2c1` [AZD-6482], the % of control [1] is reported as 92% and the % of control [2] is reported as 100%.
Compound `CC(=O)Nc1cccc(-n2c(=O)n(C3CC3)c(=O)c3c(Nc4ccc(I)cc4F)n(C)c(=O)c(C)c32)c1` has a % of control [3] of 109%.
Work on `COc1cc(N(C)c2ccnc3ccc(C(F)(F)F)cc23)cc(OC)c1OC` yielded a % binding [4] of 88%.
Work on `Nc1cnc(N2CCc3cc(S(=O)(=O)Nc4c(F)cc(Cl)cc4F)cc(N4CCCC4=O)c32)nc1` [TP-020n] yielded a % of control [5] of 100%.
For `CCC(=O)N1CCN(c2ccc(-n3c(=O)ccc4cnc5ccc(-c6cnc7ccccc7c6)cc5c43)cc2C(F)(F)F)CC1`, the % of control [6] was 94%.
`C=CC(=O)Nc1cc(-n2c(=O)ccc3cnc4ccc(-c5ccc(NS(C)(=O)=O)cc5)cc4c32)ccc1C` showed a % of control ([7]; at 1 µM) of 100% and a % of control ([7]; at 10 µM) of 100%.
Compound `O[C@H]1CC[C@H](Nc2ncc3nc(Nc4c(F)cc(F)cc4F)n([C@H]4CCOC4)c3n2)CC1` has a % of control [8] of 98%.
Work on `CNC(=O)Nc1ccc(-c2nc(N3CC4CCC(C3)O4)c3cnn(C4CCC5(CC4)OCCO5)c3n2)cc1` yielded a % of control [9] of 72%.
For `O=C(NOC[C@H](O)CO)c1ccc(F)c(F)c1Nc1ccc(I)cc1F`, the % of control [10] was 91%.
`CC(C)(O)[C@H](F)CN1Cc2cc(NC(=O)c3cnn4cccnc34)c(N3CCOCC3)cc2C1=O` was tested, and the dTM [11] was 5.2 K.
